Test results as given in PubChem BioAssay AID602355 (The Scripps Research Institute Molecular Screening Center, 2012).
Active and inactive are the calls of the source. How the calls were made is not given here.

Experiments:
Test in all cases: off-target hydrolase inhibition by competitive ABPP – gel-based competitive ABPP, fluorescence, selectivity assay for DAGLb inhibitor project, late-stage follow-up (AID 602355)
[1] = test system: ABHD11; conditions: mouse proteome gel ABPP, FP-rhodamine fluorescence, at 10 µM (top of the series)
[2] = test system: ABHD12; conditions: mouse proteome gel ABPP, FP-rhodamine fluorescence, at 10 µM (top of the series)
[3] = biological target: Acyl-protein thioesterase 1 (Mus musculus) (UniProt P97823); conditions: mouse proteome gel ABPP, FP-rhodamine fluorescence; LYPLA1; at 10 µM (top of the series)
[4] = biological target: Diacylglycerol lipase-beta (Mus musculus) (UniProt Q91WC9); conditions: mouse proteome gel ABPP, FP-rhodamine fluorescence; DAGLb; at 10 µM (top of the series)
[5] = test system: FAAH; conditions: mouse proteome gel ABPP, FP-rhodamine fluorescence, at 10 µM (top of the series)
[6] = test system: LYPLA2; conditions: mouse proteome gel ABPP, FP-rhodamine fluorescence, at 10 µM (top of the series)
[7] = test system: MAGL; conditions: mouse proteome gel ABPP, FP-rhodamine fluorescence, at 10 µM (top of the series)
[8] = biological target: Monoacylglycerol lipase ABHD6 (Mus musculus) (UniProt Q8R2Y0); conditions: mouse proteome gel ABPP, FP-rhodamine fluorescence, at 10 µM (top of the series)
[9] = biological target: Platelet-activating factor acetylhydrolase (Mus musculus) (UniProt Q60963); conditions: mouse proteome gel ABPP, FP-rhodamine fluorescence; PLA2G7; at 10 µM (top of the series)
[10] = biological target: Platelet-activating factor acetylhydrolase 2, cytoplasmic (Mus musculus) (UniProt Q8VDG7); conditions: mouse proteome gel ABPP, FP-rhodamine fluorescence; PAFAH2; at 10 µM (top of the series)
[11] = test system: PNPLA6; conditions: mouse proteome gel ABPP, FP-rhodamine fluorescence, at 10 µM (top of the series)

Monoacylglycerol lipase ABHD6 (Mus musculus), sequence (Q8R2Y0 whole entry, looked up): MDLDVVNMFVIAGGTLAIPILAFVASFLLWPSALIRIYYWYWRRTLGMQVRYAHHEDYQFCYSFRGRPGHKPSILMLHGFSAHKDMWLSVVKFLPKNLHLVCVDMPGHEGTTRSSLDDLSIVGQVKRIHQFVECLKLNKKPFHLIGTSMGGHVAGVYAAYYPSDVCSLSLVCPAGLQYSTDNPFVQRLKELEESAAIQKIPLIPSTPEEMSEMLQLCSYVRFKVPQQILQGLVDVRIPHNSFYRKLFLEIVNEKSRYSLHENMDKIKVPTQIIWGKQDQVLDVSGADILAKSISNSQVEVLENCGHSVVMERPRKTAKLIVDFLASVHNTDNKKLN
Acyl-protein thioesterase 1 (Mus musculus), sequence (P97823 whole entry, looked up): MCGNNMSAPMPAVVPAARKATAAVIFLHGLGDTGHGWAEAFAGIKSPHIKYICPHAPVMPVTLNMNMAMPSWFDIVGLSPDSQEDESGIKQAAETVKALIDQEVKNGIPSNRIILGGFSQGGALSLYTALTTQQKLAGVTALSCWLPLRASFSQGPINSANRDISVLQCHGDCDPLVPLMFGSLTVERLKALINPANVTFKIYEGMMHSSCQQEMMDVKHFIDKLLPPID
Platelet-activating factor acetylhydrolase 2, cytoplasmic (Mus musculus), sequence (Q8VDG7 whole entry, looked up): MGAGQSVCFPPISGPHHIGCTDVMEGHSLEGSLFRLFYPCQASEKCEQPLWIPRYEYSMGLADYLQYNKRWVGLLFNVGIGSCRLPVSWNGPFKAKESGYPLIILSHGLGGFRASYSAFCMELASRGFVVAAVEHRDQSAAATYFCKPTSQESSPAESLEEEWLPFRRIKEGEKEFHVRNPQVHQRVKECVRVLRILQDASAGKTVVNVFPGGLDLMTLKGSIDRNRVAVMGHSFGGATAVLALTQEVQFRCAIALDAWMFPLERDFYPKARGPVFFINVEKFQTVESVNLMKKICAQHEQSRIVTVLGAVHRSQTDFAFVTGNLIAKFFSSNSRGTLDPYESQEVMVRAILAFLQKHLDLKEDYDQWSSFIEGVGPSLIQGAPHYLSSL
Platelet-activating factor acetylhydrolase (Mus musculus), sequence (Q60963 whole entry, looked up): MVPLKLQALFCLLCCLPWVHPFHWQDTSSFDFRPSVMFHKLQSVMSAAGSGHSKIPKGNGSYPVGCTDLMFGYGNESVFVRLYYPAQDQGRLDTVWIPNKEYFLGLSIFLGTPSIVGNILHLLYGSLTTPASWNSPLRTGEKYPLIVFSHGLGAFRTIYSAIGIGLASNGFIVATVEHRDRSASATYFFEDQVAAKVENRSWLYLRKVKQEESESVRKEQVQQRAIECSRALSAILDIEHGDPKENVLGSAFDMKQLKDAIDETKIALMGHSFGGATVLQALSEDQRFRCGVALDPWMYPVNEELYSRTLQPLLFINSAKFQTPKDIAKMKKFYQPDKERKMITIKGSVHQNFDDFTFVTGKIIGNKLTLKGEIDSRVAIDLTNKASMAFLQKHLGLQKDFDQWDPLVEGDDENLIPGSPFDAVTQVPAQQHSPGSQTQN
Diacylglycerol lipase-beta (Mus musculus), sequence (Q91WC9 whole entry, looked up): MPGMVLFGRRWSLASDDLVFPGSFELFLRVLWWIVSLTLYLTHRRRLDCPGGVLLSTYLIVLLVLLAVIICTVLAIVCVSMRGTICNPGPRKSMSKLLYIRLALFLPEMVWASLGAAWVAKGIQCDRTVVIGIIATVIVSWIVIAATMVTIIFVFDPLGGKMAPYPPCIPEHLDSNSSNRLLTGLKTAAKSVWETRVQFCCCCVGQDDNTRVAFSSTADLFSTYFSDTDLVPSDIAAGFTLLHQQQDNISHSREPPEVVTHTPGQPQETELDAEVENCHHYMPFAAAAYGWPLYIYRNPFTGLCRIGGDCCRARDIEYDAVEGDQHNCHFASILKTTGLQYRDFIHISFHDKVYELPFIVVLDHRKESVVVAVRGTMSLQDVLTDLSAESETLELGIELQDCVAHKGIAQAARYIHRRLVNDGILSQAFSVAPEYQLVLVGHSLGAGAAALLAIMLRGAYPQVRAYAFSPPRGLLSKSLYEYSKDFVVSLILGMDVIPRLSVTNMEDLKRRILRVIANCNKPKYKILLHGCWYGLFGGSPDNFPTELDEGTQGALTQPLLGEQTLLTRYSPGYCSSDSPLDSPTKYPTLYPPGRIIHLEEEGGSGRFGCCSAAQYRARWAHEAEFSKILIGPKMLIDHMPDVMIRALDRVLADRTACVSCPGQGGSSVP

| inhibition [1] | inhibition [2] | inhibition [3] | inhibition [4] | inhibition [5] | inhibition [6] | inhibition [7] | inhibition [8] | inhibition [11] | SMILES | inhibition [9] | inhibition [10] |
| --- | --- | --- | --- | --- | --- | --- | --- | --- | --- | --- | --- |
| 0% (inactive) | 0% (inactive) | 0% (inactive) | 95% | 0% (inactive) | 0% (inactive) | 100% | 100% |  | COc1ccccc1-c1ccc(-c2cn(C(=O)N3CCCCC3Cc3ccccc3)nn2)cc1 (stereo not drawn) | 85% | 15% (inactive) |
| 0% (inactive) | 0% (inactive) | 15% (inactive) | 20% (inactive) | 70% | 15% (inactive) | 0% (inactive) | 100% | 55% (inactive) | COc1ccc(-c2ccc(-c3cn(C(=O)N4CCCCC4c4ccccc4)nn3)cc2)cc1 (stereo not drawn) |  |  |

| SMILES | inhibition [1] | inhibition [2] | inhibition [3] | inhibition [4] | inhibition [5] | inhibition [6] | inhibition [7] | inhibition [8] | inhibition [11] | inhibition [9] | inhibition [10] |
| --- | --- | --- | --- | --- | --- | --- | --- | --- | --- | --- | --- |
| O=C(N1CCCCC1Cc1ccccc1)n1cc(-c2ccc(-c3ccccc3)cc2)nn1 (stereo not drawn) | 0% (inactive) | 20% (inactive) | 0% (inactive) |  | 25% (inactive) | 0% (inactive) | 0% (inactive) | 100% |  | 100% | 80% (inactive) |
